Measurements from patent US10092584B2 (Achillion Pharmaceuticals, Inc., priority 2015, dated 2018).
Where a name gives a salt, the structure may show the parent alone.

Molecular target: T1, Human Factor D (Homo sapiens, UniProt P00746)
T1 construct: purified from human serum; purchased Complement Technology, Inc; host or cells: human serum
Assay: Human Factor D assay (Example 8)
Type: biochemical
Conditions: Table 3; Human Factor D 80 nM, substrate Z-L-Lys-SBzl; read-out: IC50 (Stars)
How it was run: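 Serum-purified human Factor D (80 nM final) was preincubated with test compound at various concentrations for 5 min at room temperature in 50 mM Tris, 1M NaCl, pH 7.5. Z-L-Lys-SBzl and DTNB were then added at 100 μM each. IC50 came from nonlinear regression of reaction rates versus compound concentration.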

T1 sequence (P00746 26-253): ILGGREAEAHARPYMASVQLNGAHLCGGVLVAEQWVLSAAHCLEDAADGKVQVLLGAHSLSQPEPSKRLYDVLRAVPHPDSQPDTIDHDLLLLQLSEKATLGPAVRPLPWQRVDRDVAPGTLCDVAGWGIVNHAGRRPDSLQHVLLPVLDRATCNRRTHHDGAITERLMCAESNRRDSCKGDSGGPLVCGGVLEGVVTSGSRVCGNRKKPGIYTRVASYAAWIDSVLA

| SMILES | IC50 |
| --- | --- |
| NC(=O)c1nn(CC(=O)N2C[C@H](O)C[C@H]2C(=O)Nc2cccc(-c3ccccc3Cl)c2F)c2ccccc12 [Compound 336, 1-(2-((2S,4R)-2-((2′-chloro-2-fluoro-[1,1′-biphenyl]-3-yl)carbamoyl)-4-hydroxypyrrolidin-1-yl)-2-oxoethyl)-1H-indazole-3-carboxamide] | < 1000 nM |
| COC(=O)c1cccc(NC(=O)[C@@H]2C[C@@H](F)CN2C(=O)Cn2nc(C(N)=O)c3ccccc32)c1F [Compound 345, methyl 3-((2S,4R)-1-(2-(3-carbamoyl-1H-indazol-1-yl)acetyl)-4-fluoropyrrolidine-2-carboxamido)-2-fluorobenzoate] | < 1000 nM |
| NC(=O)c1nn(CC(=O)N2CC(F)(F)C[C@H]2C(=O)Nc2cccc(-c3ccccc3Cl)c2F)c2ccccc12 [Compound 353, (S)-1-(2-(2-((2′-chloro-2-fluoro-[1,1′-biphenyl]-3-yl)carbamoyl)-4,4-difluoropyrrolidin-1-yl)-2-oxoethyl)-1H-indazole-3-carboxamide] | < 1000 nM |
| NC(=O)c1nn(CC(=O)N2CC(=O)C[C@H]2C(=O)Nc2cccc(-c3ccccc3Cl)c2F)c2ccccc12 [Compound 355, (S)-1-(2-(2-((2′-chloro-2-fluoro-[1,1′-biphenyl]-3-yl)carbamoyl)-4-oxopyrrolidin-1-yl)-2-oxoethyl)-1H-indazole-3-carboxamide] | < 1000 nM |
| NC(=O)c1nn(CC(=O)N2C[C@H](F)C[C@H]2C(=O)Nc2nc3cccc(Cl)c3[nH]2)c2ccccc12 [Compound 360, 1-(2-((2S,4R)-2-((7-chloro-1H-benzo[d]imidazol-2-yl)carbamoyl)-4-fluoropyrrolidin-1-yl)-2-oxoethyl)-1H-indazole-3-carboxamide] | < 1000 nM |
| CC(=O)c1nn(CC(=O)N2C[C@H](F)C[C@H]2C(=O)Nc2cccc(-c3ccccc3Cl)c2F)c2cc(C(=O)O)sc12 [Compound 363] | < 1000 nM |
| CC(=O)c1nc(CC(=O)N2C[C@H](F)C[C@H]2C(=O)Nc2cccc(-c3ccccc3Cl)c2F)n2ccccc12 [Compound 372, (2S,4R)-1-(2-(1-Acetylimidazo[1,5-a]pyridin-3-yl)acetyl)-N-(2′-chloro-2-fluoro-[1,1′-biphenyl]-3-yl)-4-fluoropyrrolidine-2-carboxamide] | < 1000 nM |
| CC(=O)c1nn(CC(=O)N2C[C@H](F)C[C@H]2C(=O)Nc2cccc(Br)n2)c2ccccc12 [Compound 388, (2S,4R)-1-(2-(3-acetyl-1H-indazol-1-yl)acetyl)-N-(6-bromopyridin-2-yl)-4-fluoropyrrolidine-2-carboxamide] | < 1000 nM |
| CC(=O)c1nn(CC(=O)N2[C@@H]3C[C@@H]3C[C@H]2C(=O)NC/C(F)=C(/C)c2cccc(Cl)c2)c2ccccc12 [Compound 396] | < 1000 nM |
| CC(=O)c1nn(CC(=O)N2C[C@H](F)C[C@H]2C(=O)NCC23CC4CC(CC(C4)C2)C3)c2ccccc12 [Compound 397, (2S,4R)-1-(2-(3-acetyl-1H-indazol-1-yl)acetyl)-N-(((3S,5S,7S)-adamantan-1-yl)methyl)-4-fluoropyrrolidine-2-carboxamide] | < 1000 nM |
| CC(=O)c1nn(CC(=O)N2C[C@H](F)C[C@H]2C(=O)Nc2cccc(Br)n2)c2cnc(Cl)cc12 [Compound 399, (2S,4R)-1-(2-(3-Acetyl-5-chloro-1H-pyrazolo[3,4-c]pyridin-1-yl)acetyl)-N-(6-bromopyridin-2-yl)-4-fluoropyrrolidine-2-carboxamide] | < 1000 nM |
| CC(=O)c1nn(CC(=O)N2C[C@H](F)C[C@H]2C(=O)Nc2cccc(-c3ccc4c(c3)NCC4)c2F)c2ccccc12 [Compound 437, (2S,4R)-1-(2-(3-acetyl-1H-indazol-1-yl)acetyl)-4-fluoro-N-(2-fluoro-3-(indolin-6-yl)phenyl)pyrroli-dine-2-carboxamide] | < 1000 nM |
| NC(=O)c1nn(CC(=O)N2C[C@H](F)C[C@H]2C(=O)Nc2cccc(-c3ccc4c(c3Cl)NCCN4)c2F)c2ccccc12 [Compound 443, 1-(2-((2S,4R)-2-((3-(5-Chloro-1,2,3,4-tetrahydroquinoxalin-6-yl)-2-fluorophenyl)carbamoyl)-4-fluoropyrrolidin-1-yl)-2-oxoethyl)-1H-indazole-3-carboxamide] | < 1000 nM |
| CC(=O)c1nn(CC(=O)N2C[C@H](F)C[C@H]2C(=O)Nc2cccc(-c3ccc4c(c3Cl)NCCN4)c2F)c2ccccc12 [Compound 445, (2S,4R)-1-(2-(3-Acetyl-1H-indazol-1-yl)acetyl)-N-(3-(5-chloro-1,2,3,4-tetrahydroquinoxalin-6-yl)-2-fluorophenyl)-4-fluoropyrrolidine-2-carboxamide] | < 1000 nM |
| CC(=O)c1nn(CC(=O)N2C[C@H](F)C[C@H]2C(=O)Nc2cccc(-c3ccc4c(c3)CCCN4)c2F)c2ccccc12 [Compound 449, (2S,4R)-1-(2-(3-Acetyl-1H-indazol-1-yl)acetyl)-4-fluoro-N-(2-fluoro-3-(1,2,3,4-tetrahydroquinolin-6-yl)phenyl)pyrrolidine-2-carboxamide] | < 1000 nM |

The remaining lines, values ahead:

| IC50 | SMILES |
| --- | --- |
| < 1000 nM | NC(=O)c1nn(CC(=O)N2CCC[C@H]2C(=O)Nc2cccc(-c3ccccc3Cl)c2F)c2ccccc12 [Compound 337, (S)-1-(2-(2-((2′-chloro-2-fluoro-[1,1′-biphenyl]-3-yl)carbamoyl)pyrrolidin-1-yl)-2-oxoethyl)-1H-indazole-3-carboxamide] |
| 1000 to 10000 nM | Cc1sc(Cl)cc1NC(=O)[C@@H]1C[C@@H](F)CN1C(=O)Cn1nc(C(N)=O)c2ccncc21 [Compound 351] |
| < 1000 nM | NC(=O)c1nn(CC(=O)N2C[C@@H](F)C[C@H]2C(=O)Nc2cccc(-c3ccccc3Cl)c2F)c2ccccc12 [Compound 352, 1-(2-((2S,4S)-2-((2′-chloro-2-fluoro-[1,1′-biphenyl]-3-yl)carbamoyl)-4-fluoropyrrolidin-1-yl)-2-oxoethyl)-1H-indazole-3-carboxamide] |
| < 1000 nM | NC(=O)c1nn(CC(=O)N2C[C@@H](O)C[C@H]2C(=O)Nc2cccc(-c3ccccc3Cl)c2F)c2ccccc12 [Compound 354, 1-(2-((2S,4S)-2-((2′-chloro-2-fluoro-[1,1′-biphenyl]-3-yl)carbamoyl)-4-hydroxypyrrolidin-1-yl)-2-oxoethyl)-1H-indazole-3-carboxamide] |
| < 1000 nM | NC(=O)c1nn(CC(=O)N2CC[C@@H](N)[C@H]2C(=O)Nc2cccc(-c3ccccc3Cl)c2F)c2ccccc12 [Compound 356, 1-(2-((2S,3R)-3-amino-2-((2′-chloro-2-fluoro-[1,1′-biphenyl]-3-yl)carbamoyl)pyrrolidin-1-yl)-2-oxoethyl)-1H-indazole-3-carboxamide] |
| < 1000 nM | NC(=O)c1nc(CC(=O)N2C[C@H](F)C[C@H]2C(=O)Nc2cccc(-c3ccccc3Cl)c2F)n2ccccc12 [Compound 373, 3-(2-((2S,4R)-2-((2′-Chloro-2-fluoro-[1,1′-biphenyl]-3-yl)carbamoyl)-4-fluoropyrrolidin-1-yl)-2-oxoethyl)imidazo[1,5-a]pyridine-1-carboxamide] |
| < 1000 nM | NC(=O)c1nn(CC(=O)N2CC[C@@H](O)[C@H]2C(=O)Nc2cccc(-c3ccccc3Cl)c2F)c2ccccc12 [Compound 374] |
| < 1000 nM | NC(=O)c1cn(CC(=O)N2CCS[C@H]2C(=O)Nc2cccc(-c3ccccc3Cl)c2F)c2ccccc12 [Compound 375, (S)-3-(2-(3-carbamoyl-1H-indol-1-yl)acetyl)-N-(2′-chloro-2-fluoro-[1,1′-biphenyl]-3-yl)thiazolidine-2-carboxamide] |
| < 1000 nM | CC(=O)c1cn(CC(=O)N2C[C@H](F)C[C@H]2C(=O)NCc2cccc(Cl)c2F)c2cc(C(=N)N)ccc12 [Compound 382, (2S,4R)-1-(2-(3-Acetyl-6-carbamimidoyl-1H-indol-1-yl)acetyl)-N-(3-chloro-2-fluorobenzyl)-4-fluoropyrrolidine-2-carboxamide TFA] |
| < 1000 nM | Cc1nc2c(s1)c(C(N)=O)nn2CC(=O)N1C[C@H](F)C[C@H]1C(=O)Nc1cccc(-c2ccccc2Cl)c1F [Compound 383, 1-(2-((2S,4R)-2-(2′-Chloro-2-fluorobiphenyl-3-ylcarbamoyl)-4-fluoropyrrolidin-1-yl)-2-oxoethyl)-5-methyl-1H-pyrazolo[3,4-d]thiazole-3-carboxamide] |
| 1000 to 10000 nM | COC(=O)/C=C/c1cccc(NC(=O)[C@@H]2C[C@@H](F)CN2C(=O)Cn2nc(C(N)=O)c3ccccc32)c1F [Compound 389, (E)-methyl 3-(3-((2S,4R)-1-(2-(3-carbamoyl-1H-indazol-1-yl)acetyl)-4-fluoropyrrolidine-2-carboxamido)-2-fluorophenyl) acrylate] |
| < 1000 nM | CC(=O)c1nn(CC(=O)N2C[C@H](F)C[C@H]2C(=O)Nc2cccc(Br)n2)c2ccc(O)cc12 [Compound 395, (2S,4R)-1-(2-(3-acetyl-5-hydroxy-1H-indazol-1-yl)acetyl)-N-(6-bromopyridin-2-yl)-4-fluoropyrrolidine-2-carboxamide] |
| < 1000 nM | CC(=O)c1nn(CC(=O)N2C[C@H](F)C[C@H]2C(=O)Nc2cccc(-c3ccc4c(c3)CCN4)c2F)c2ccccc12 [Compound 435, (2S,4R)-1-(2-(3-Acetyl-1H-indazol-1-yl)acetyl)-4-fluoro-N-(2-fluoro-3-(indolin-5-yl)phenyl)pyrrolidine-2-carboxamide] |
| < 1000 nM | CC(=O)c1nn(CC(=O)N2C[C@H](F)C[C@H]2C(=O)Nc2cccc(-c3ccc4c(c3)NCCN4)c2F)c2ccccc12 [Compound 436] |
| < 1000 nM | CC(=O)c1nn(CC(=O)N2C[C@H](F)C[C@H]2C(=O)Nc2cccc(-c3ccc4c(c3)CNC4)c2F)c2ccccc12 [Compound 439, (2S,4R)-1-(2-(3-Acetyl-1H-indazol-1-yl)acetyl)-4-fluoro-N-(2-fluoro-3-(isoindolin-5-yl)phenyl)pyrrolidine-2-carboxamide] |
| < 1000 nM | NC(=O)c1nn(CC(=O)N2C[C@H](F)C[C@H]2C(=O)Nc2cccc(-c3ccc4c(c3)NCCO4)c2F)c2ccccc12 [Compound 442, 1-(2-((2S,4R)-2-((3-(3,4-Dihydro-2H-benzo[b][1,4]oxazin-6-yl)-2-fluorophenyl)carbamoyl)-4-fluoropyrrolidin-1-yl)-2-oxoethyl)-1H-indazole-3-carboxamide] |
